Tests used:
Format in all cases: toxicity, cell-based
Fibroblast = experiment: Incucyte cell viability with human fibroblast; conditions: 10 µM, compound concentration 10 uM
HEK-293T = experiment: Incucyte cell viability with HEK293T; conditions: human, 10 µM, compound concentration 10 uM
U2OS = experiment: Incucyte cell viability with U2OS; conditions: human, 10 µM, compound concentration 10 uM
Also: unitless GR value; below 1 slowed growth and below 0 cell loss.

| Structure (SMILES) | Growth Rate (Fibroblast; 6 h, replicate number 1) | Growth Rate (Fibroblast; 6 h, replicate number 2) | Growth Rate (Fibroblast; 12 h, replicate number 1) | Growth Rate (Fibroblast; 12 h, replicate number 2) | Growth Rate (Fibroblast; 18 h, replicate number 1) | Growth Rate (Fibroblast; 24 h, replicate number 1) | Growth Rate (HEK-293T; 6 h, replicate number 1) | Growth Rate (U2OS; 12 h, replicate number 2) | Growth Rate (U2OS; 18 h, replicate number 1) | Growth Rate (U2OS; 18 h, replicate number 2) | Growth Rate (U2OS; 24 h, replicate number 1) | Growth Rate (U2OS; 24 h, replicate number 2) | Growth Rate (Fibroblast; 18 h, replicate number 2) | Growth Rate (Fibroblast; 24 h, replicate number 2) | Growth Rate (HEK-293T; 12 h, replicate number 2) | Growth Rate (HEK-293T; 18 h, replicate number 1) | Growth Rate (HEK-293T; 18 h, replicate number 2) | Growth Rate (HEK-293T; 24 h, replicate number 1) | Growth Rate (HEK-293T; 24 h, replicate number 2) | Growth Rate (U2OS; 0 h, replicate number 1) | other results |
| --- | --- | --- | --- | --- | --- | --- | --- | --- | --- | --- | --- | --- | --- | --- | --- | --- | --- | --- | --- | --- | --- |
| Nc1ncnc2c1ccn2[C@@H]1O[C@H]([C@@H](O)c2ccccc2)[C@@H](O)[C@H]1O | 0.32 | 0.31 | 0.69 | 0.57 | 0.97 | 0.81 | 0.8 | 1 | 0.86 | 0.91 | 0.8 | 0.95 |  |  |  |  |  |  |  |  | Growth Rate (HEK-293T; 0 h, replicate number 2): -0.97 |
| C#Cc1cnc2[nH]cc(-c3cccc4c3CCN4C(=O)[C@@H]3CCCN3C#N)c2c1 | -0.83 | -1 | -0.63 | -0.69 | -0.48 | -0.36 | -0.95 | -0.19 | -0.68 | -0.52 | -0.58 | -0.56 | -0.58 | -0.41 | -0.78 | -0.46 | -0.5 | -0.29 | -0.34 | 0.82 | Growth Rate (Fibroblast; 0 h, replicate number 1): -1; Growth Rate (HEK-293T; 6 h, replicate number 2): -0.98; Growth Rate (HEK-293T; 12 h, replicate number 1): -0.75; Growth Rate (U2OS; 6 h, replicate number 1): 0.06; Growth Rate (U2OS; 6 h, replicate number 2): 0.45; Growth Rate (U2OS; 12 h, replicate number 1): -0.58 |
| Cc1nsc(Nc2cnc(C(F)(F)F)cn2)c1C(=O)Nc1ccc(O[C@H]2CCCN(CC(F)(F)F)C2)nc1 | -0.21 | -0.93 | -0.43 |  | -0.36 | -0.23 | -0.28 | 0.59 | 0.06 | 0.57 | 0.03 | 0.52 | -0.45 | -0.3 | -0.54 | -0.3 | -0.41 | -0.25 | -0.32 |  | Growth Rate (Fibroblast; 0 h, replicate number 1): -1; Growth Rate (HEK-293T; 0 h, replicate number 1): -0.98; Growth Rate (HEK-293T; 6 h, replicate number 2): -0.6; Growth Rate (HEK-293T; 12 h, replicate number 1): -0.36; Growth Rate (U2OS; 0 h, replicate number 2): 0.91; Growth Rate (U2OS; 6 h, replicate number 1): 0.72; Growth Rate (U2OS; 6 h, replicate number 2): 0.73; Growth Rate (U2OS; 12 h, replicate number 1): 0.39 |
| CCCCC/C=C/C=C1/C(=O)C=C[C@@H]1C/C=C\CCCC(=O)O | 0.99 |  |  | 0.93 | 0.94 | 0.72 |  | 0.62 | 0.74 | 0.7 | 0.68 | 0.85 | 0.89 | 0.7 | 0.95 | 0.89 | 0.98 | 0.86 | 0.94 |  | Growth Rate (Fibroblast; 0 h, replicate number 2): -0.86; Growth Rate (HEK-293T; 0 h, replicate number 2): -0.01; Growth Rate (HEK-293T; 12 h, replicate number 1): 0.88; Growth Rate (U2OS; 0 h, replicate number 2): -0.2; Growth Rate (U2OS; 6 h, replicate number 2): 0.82 |
| CC(C)n1cnc2c(Nc3cccc(Cl)c3)nc(N[C@H]3CCCC[C@@H]3N)nc21 | -1 | -0.94 |  | -0.16 |  |  | -0.96 | -0.22 | -0.12 | -0.25 | -0.14 | -0.2 | -0.01 | 0.13 | -0.59 | -0.56 | -0.35 | -0.46 | -0.25 | -1 | Growth Rate (HEK-293T; 6 h, replicate number 2): -0.92; Growth Rate (HEK-293T; 12 h, replicate number 1): -0.82; Growth Rate (U2OS; 6 h, replicate number 1): 0.85; Growth Rate (U2OS; 6 h, replicate number 2): 0.88; Growth Rate (U2OS; 12 h, replicate number 1): -0.26 |
| Cc1ccc(NC(=O)c2ccc3c(c2)OCCO3)cc1NC(=O)c1ccc2nc(OCCN3CCCC3)ccc2c1 | -0.21 | -0.58 | -0.3 | -0.27 | -0.2 | -0.09 | -0.91 | 0.05 | -0.16 | -0.04 | -0.12 | -0.01 | -0.22 | -0.05 | -0.81 | -0.56 | -0.61 | -0.43 | -0.45 | 0.21 | Growth Rate (Fibroblast; 0 h, replicate number 2): -0.85; Growth Rate (HEK-293T; 6 h, replicate number 2): -0.96; Growth Rate (HEK-293T; 12 h, replicate number 1): -0.78; Growth Rate (U2OS; 6 h, replicate number 1): 0.15; Growth Rate (U2OS; 6 h, replicate number 2): 0.35; Growth Rate (U2OS; 12 h, replicate number 1): -0.04 |
| Cc1[nH]nc2ccc(-c3cncc(OCC(N)Cc4c[nH]c5ccccc45)c3)cc12 (stereo unspecified) | -1 |  |  |  |  |  |  |  | 0.51 |  | 0.09 | 0.13 | 0.88 | 0.21 | 0.41 | 0.65 | 0.08 | 0.19 | -0.02 |  | Growth Rate (HEK-293T; 0 h, replicate number 1): -0.53; Growth Rate (HEK-293T; 0 h, replicate number 2): -0.56; Growth Rate (U2OS; 0 h, replicate number 2): 0.54 |
| CCc1cncnc1N1CCN(Cc2nc3cc(C(F)(F)F)ccc3[nH]2)CC1 | 1 | -0.99 | -1 | 0.78 | 0.44 | 0.31 | 0.41 | 0.49 | 0.53 | 0.57 | 0.7 | 0.84 |  | 0.93 | 0.34 | 0.65 | 0.48 | 0.88 | 0.58 |  | Growth Rate (Fibroblast; 0 h, replicate number 1): 0.88; Growth Rate (HEK-293T; 6 h, replicate number 2): 0.28; Growth Rate (HEK-293T; 12 h, replicate number 1): 0.53; Growth Rate (U2OS; 0 h, replicate number 2): -0.83; Growth Rate (U2OS; 6 h, replicate number 1): 0.31; Growth Rate (U2OS; 6 h, replicate number 2): 0.19; Growth Rate (U2OS; 12 h, replicate number 1): 0.51 |
| CC(C)(C)NC(=O)c1cncn1C1CCN(c2ccc(-c3nnc(C(F)(F)F)o3)cn2)CC1 | 0.1 | -0.99 | -0.09 | -0.49 | -0.2 | -0.13 | 0.35 | 0.34 | 0.27 | 0.46 | 0.32 | 0.6 | -0.39 | -0.11 | -0.22 | 0.18 | -0.09 | 0.15 | 0.08 | -0.02 | Growth Rate (Fibroblast; 0 h, replicate number 1): -1; Growth Rate (HEK-293T; 0 h, replicate number 1): -0.46; Growth Rate (HEK-293T; 0 h, replicate number 2): -0.33; Growth Rate (HEK-293T; 6 h, replicate number 2): -0.15; Growth Rate (HEK-293T; 12 h, replicate number 1): 0.06; Growth Rate (U2OS; 0 h, replicate number 2): 0.52; Growth Rate (U2OS; 6 h, replicate number 1): -0.4; Growth Rate (U2OS; 6 h, replicate number 2): 0; Growth Rate (U2OS; 12 h, replicate number 1): -0.09 |
| COc1cc(Nc2ccc([N+](=O)[O-])cc2C(=O)O)cc2ccccc12 |  | -0.6 |  | 0.4 | -0.31 | 0.68 |  |  |  |  | 0.98 |  | 0.45 | 0.63 |  |  |  |  |  | 0.77 | Growth Rate (HEK-293T; 0 h, replicate number 1): 0.41; Growth Rate (HEK-293T; 0 h, replicate number 2): 0.13; Growth Rate (U2OS; 0 h, replicate number 2): -0.1 |
| C=C[C@@]12CCc3cc(O)ccc3[C@H]1CC[C@@]1(C)[C@H]2CC[C@@H]1O | 0.24 | 0.88 | 0.86 | 0.29 | 0.92 | 0.83 |  | 0.95 |  | 0.93 |  | 0.91 | 0.95 | 0.71 |  |  |  |  |  | 0.1 | Growth Rate (Fibroblast; 0 h, replicate number 1): -1; Growth Rate (HEK-293T; 0 h, replicate number 1): 0.4; Growth Rate (HEK-293T; 0 h, replicate number 2): -0.37; Growth Rate (U2OS; 6 h, replicate number 1): 0.77; Growth Rate (U2OS; 6 h, replicate number 2): 0.96; Growth Rate (U2OS; 12 h, replicate number 1): 0.99 |
| CC(C)(O)C(=O)N1CCN(c2ccc(C(F)(F)F)c(C3=C(c4c[nH]c5ccccc45)C(=O)NC3=O)c2)CC1 | -0.74 |  | -1 |  |  |  | 0.81 |  | 0.9 | 0.8 | 0.76 | 0.83 | 0.73 | 0.3 | 0.57 | 0.83 | 0.49 | 0.61 | 0.42 | -0.61 | Growth Rate (Fibroblast; 0 h, replicate number 2): -1; Growth Rate (HEK-293T; 0 h, replicate number 1): 0.94; Growth Rate (HEK-293T; 6 h, replicate number 2): 0.29; Growth Rate (U2OS; 12 h, replicate number 1): 0.93 |
| Cl.O=c1cc(C2CCNCC2)n2nc3cccc(Cl)c3c2[nH]1 |  |  |  |  |  |  |  | 1 | 0.98 |  |  |  |  |  | 0.58 |  | 0.96 |  | 0.91 | 0.61 | Growth Rate (Fibroblast; 0 h, replicate number 1): -0.94; Growth Rate (Fibroblast; 0 h, replicate number 2): -0.98; Growth Rate (HEK-293T; 0 h, replicate number 1): -0.29; Growth Rate (HEK-293T; 0 h, replicate number 2): -0.61; Growth Rate (U2OS; 6 h, replicate number 1): 0.98 |

Reference: ChEMBL document CHEMBL5303304, “EUbOPEN Chemogenomics Library - IncuCyte” (2023)
